Entries after “also recorded” stand apart in the source; their conditions may differ.
Columns and labels:
[1] = system: L. amazonensis intracellular amastigotes; test: Activity against intracellular amastigote forms of L. amazonensis in peritoneal macrophages (Giemsa counting); type: cell-based, Leishmania amazonensis; details: for IC50: Leishmania amazonensis, Peritoneal macrophage, intracellular amastigotes in murine peritoneal macrophages, 72 h; for SI (Selectivity Index): CC50 of peritoneal murine macrophages/IC50 L. amazonensis amastigotes
Protocol: Peritoneal macrophages were obtained from BALB/c mice previously inoculated with 3% thioglycollate medium (da Trindade Granato et al. [2018]). The macrophages (2 × 10^6 cells/mL) were then allowed to adhere in 24‐well culture plates for 16 h at 37°C in a 5% CO2 atmosphere. After rinsing with phosphate‐buffered saline (PBS), the adhered macrophages were infected with stationary‐phase promastigotes of L. amazonensis at a 10:1 parasite‐to‐macrophage ratio for 4 h at 33°C. After several washes to remove non‐adherent promastigotes, the cells were either left untreated (negative control) or treated with the compounds (3.125–100.000 μM). Following a 72 h treatment period, the infected macrophages were fixed in ethanol, stained with Giemsa, and 200 macrophages were counted to determine the number of intracellular amastigotes. The GraFit software was used to determine the IC50, which was the outcome of three separate trials conducted in duplicate.

[2] = Cytotoxicity against mammalian cells (MTT); type: cell-based, BALB/c mice; details: BALB/c, mouse; peritoneal murine macrophages, 72 h, MTT
Protocol: (§1) After being prepared as previously mentioned, murine peritoneal macrophages obtained from BALB/c mice were either left untreated (negative control) or treated with the compounds (3.125–100.000 μM). Using a spectrophotometer (Multiskan EX, Thermo Electron Corporation, Vantaa, Finland) set to 570 nm, cell viability was assessed after 72 h of treatment using the MTT method (Mosmann [1983]). A cytotoxic concentration for 50% of the cell population (CC50) was used to express the results. The reference medication was miltefosine (Cayman Chemical Company, Ann Arbor, MI, USA). The assays were performed in three independent experiments in duplicate. The selectivity index was calculated by […].

[3] = Cytotoxicity in human red blood cells (hemolytic assay); type: cell-based; details: human erythrocytes (1% suspension), 200.00 μM (maximum concentration tested)
Protocol: (§2) Blood cells were centrifuged at 1500 rpm, the plasma and leukocytes were discarded, and the erythrocytes were washed in PBS. Then, the cells were diluted to a concentration of 1%, plated in 96‐well plates, and untreated or treated with the compound 7 at different concentrations (0.09–200.00 μM). The plate was incubated for 24 h at 37°C, and then centrifuged at 2000 rpm for 1 min. The supernatant was collected, and the absorbance (Abs) was determined in a spectrophotometer (Multiskan EX, Thermo Electron Corporation, Vantaa, Finland) at 540 nm. Untreated cells were considered the negative control. For the positive control, 0.2% saponin in deionized water was used.

[4] = system: L. amazonensis promastigotes; test: Activity against promastigotes of L. amazonensis (MTT); type: cell-based; details: Leishmania amazonensis, 72 h, read-out: Promastigote IC50
Protocol: Promastigotes of L. amazonensis (IFLA/BR/67/PH8) were cultivated in brain heart infusion ([…] José dos […], Brazil) supplemented with bovine hemin (Sigma-Aldrich, St. Louis, MO, USA), folic acid (Sigma-Aldrich, St. Louis, MO, USA), inactivated fetal bovine serum (Cultilab, São Paulo, Brazil), and penicillin/streptomycin solution (Sigma-Aldrich, St. Louis, MO, USA). The cells were kept at 25°C in a BOD incubator. […] Louis, MO, USA; Mosmann [1983]). The viability of parasites was measured using a spectrophotometer (Multiskan EX-Thermo Electron Corporation, Vantaa, Finland) at 570 nm. The values were expressed as an inhibitory concentration capable of inhibiting 50% (IC50) of cell growth by using GraFit 5 software (Erithacus Software Ltda). […] Paulo, SP, Brazil) were used as reference drugs. All assays were run in triplicate across three separate trials.

[5] = system: peritoneal murine macrophages; set-up: method as in Meinel et al. ([2020]); details: murine macrophage cells; ref Meinel et al. ([2020]); cited from earlier work
[6] = system: L. amazonensis promastigotes; test: Total ROS production (H2DCFDA); type: cell-based, Leishmania amazonensis
Protocol: (§3) To measure ROS and mitochondrial ROS (superoxide) levels, L. amazonensis promastigotes (5 × 10^6 cells) were exposed to compound 7 (1.25 and 2.50 μM) for 6 and 24 h, following the methodology described by da Trindade Granato et al. ([2018]). Before the incubation, cells were washed with PBS and stained with 1 mM H2DCFDA (Invitrogen, Waltham, MA, USA) to measure total ROS. Fluorescence was measured after a 30‐min incubation with the dye using a fluorimeter (FLx800, BioTek Instruments Inc., Winooski, VT, USA) at an excitation/emission wavelength of 485/528 nm. As a positive control, cells were treated with 62.5 μM H2O2. To quantify mitochondrial superoxide, the MitoSOX Red indicator (Invitrogen, Molecular Probes, Eugene, Oregon, USA) was employed. Leishmania amazonensis promastigotes were treated with compound 7 (1.25 and 2.50 μM) for 6 and 24 h at 25°C. Cells were labeled with MitoSOX Red indicator at 5 μM and incubated for 20 min. Promastigotes incubated with antimycin A (10 μM) were used as the positive control. Fluorescence intensity was evaluated in a spectrofluorometer (FLx800, BioTek Instruments Inc., Winooski, VT, USA) at 540/600 nm of excitation/emission, respectively.

[7] = system: L. amazonensis promastigotes; test: Mitochondrial superoxide (MitoSOX Red); type: cell-based, Leishmania amazonensis; details: for increase in mitochondrial superoxide: 6 h
Protocol: as §3

[8] = system: L. amazonensis promastigotes; test: Cell membrane integrity (propidium iodide); type: cell-based, Leishmania amazonensis; details: 24 h, 1.25 and 2.50 μM
Protocol: To evaluate cell membrane integrity, L. amazonensis promastigotes (5 × 10^6 cells) were treated with compound 7 (1.25 and 2.50 μM) for 24 h. After incubation, the cells were washed with PBS and stained with 0.20 μg/mL of propidium iodide (PI) (Sigma‐Aldrich, St. Louis, MO, USA) (da Trindade Granato et al. [2018]). Following a 15‐min incubation with PI, fluorescence was measured using a fluorimeter (FLx800) at an excitation/emission wavelength of 540/600 nm. Cells exposed to heat at 65°C for 10 min were used as a positive control.

[9] = system: L. amazonensis promastigotes; test: Mitochondrial membrane potential (JC-1); type: cell-based, Leishmania amazonensis; details: for mitochondrial membrane hyperpolarization: 24 h
Protocol: To evaluate mitochondrial membrane potential (MMP), L. amazonensis promastigotes (5 × 10^6 cells) were exposed to compound 7 (1.25 μM and 2.50 μM) for 6 and 24 h. After incubation, the cells were washed with PBS and stained with 5.00 μM JC‐1 (Coimbra et al. [2019]). After a 40‐min incubation with JC‐1, the cells were washed with Hank's solution, and fluorescence was measured using a fluorimeter (FLx800, BioTek Instruments Inc., Winooski, VT, USA) at excitation/emission wavelengths of 485/528 nm and 540/600 nm to detect fluorescence from monomers and J‐aggregates, respectively. As a positive control, cells were treated with 10.00 μM FCCP (Sigma‐Aldrich, St. Louis, MO, USA). MMP was assessed by calculating the ratio of fluorescence emitted by J‐aggregates to that of monomers.

[10] = system: peritoneal murine macrophages; test: Cytotoxicity against mammalian cells (MTT); type: cell-based, BALB/c mice; details: comparator from Meinel et al. [2020]
Protocol: as §1

human erythrocytes = test: Cytotoxicity in human red blood cells (hemolytic assay); type: cell-based; details: 24 h, 0.09–200.00 μM
Protocol: as §2

Structure (SMILES)	IC50 [1] [µM]	CC50 at 72 h [2] [µM]	IC50 [4] [nM]	SI (Selectivity Index) [1]	other results
C[C@@H]1[C@H](O)[C@@H](C)/C=C/C=C/C=C/C=C/C=C/C=C/C=C/[C@H](O[C@@H]2O[C@H](C)[C@@H](O)[C@H](N)[C@@H]2O)C[C@@H]2O[C@](O)(C[C@@H](O)C[C@@H](O)[C@H](O)CC[C@@H](O)C[C@@H](O)CC(=O)O[C@H]1C)C[C@H](O)[C@H]2C(=O)O [Am B, amphotericin B, reference compound]	85.8 ± 30.4	0.71 ± 0.22	–	–	hemolysis at 24 h, 200 µM [3]: 95.9%
CCCCCCCCCCn1cc(COC(=O)c2ccccc2O)nn1 [Compound 3, (1‐Decyl‐1H‐1,2,3‐Triazol‐4‐Yl)methyl 2‐Hydroxybenzoate]	> 100	70.2 ± 14.2	> 100000	–	–
CCCCCCCCCCCCn1cc(COC(=O)c2ccccc2O)nn1 [Compound 4, (1‐Dodecyl‐1H‐1,2,3‐Triazol‐4‐Yl)methyl 2‐Hydroxybenzoate]	> 100	> 150	> 100000	–	–
CCCCCCCCCCCCCCCCn1cc(COC(=O)c2ccccc2O)nn1 [Compound 6, (1‐Hexadecyl‐1H‐1,2,3‐Triazol‐4‐Yl)methyl 2‐Hydroxybenzoate]	> 100	> 150	> 100000	–	–
CCCCCCCCCCCCCCCCn1cc(COC(=O)c2ccccc2O)[n+](C)n1.[I-] [Compound 11, 1‐Hexadecyl‐4‐(((2‐Hydroxybenzoyl)oxy)methyl)‐3‐Methyl‐1H‐1,2,3‐Triazol‐3‐Ium Iodide]	12.4 ± 1.86	4.01 ± 1.12	1720 ± 20	0.32	–
CCCCCCCCCCCCCCn1cc(COC(=O)c2ccccc2O)nn1 [Compound 5, (1‐Tetradecyl‐1H‐1,2,3‐Triazol‐4‐Yl)methyl 2‐Hydroxybenzoate]	> 100	> 150	> 100000	–	–
CCCCCCCCCCn1cc(COCC2CO2)[n+](C)n1.[I-] (stereo not drawn) [1‐decyl‐3‐methyl‐4‐((oxiran‐2‐ylmethoxy)methyl)‐1H‐1,2,3‐triazol‐3‐ium iodide]	–	–	–	–	fold lower cytotoxicity compared to its 4-hydroxy-substituted precursor [5]: approximately 2.5 fold
CCCCCCCCn1cc(COC(=O)c2ccccc2O)nn1 [Compound 2, (1‐Octyl‐1H‐1,2,3‐Triazol‐4‐Yl)methyl 2‐Hydroxybenzoate]	> 100	> 150	> 100000	–	–
CCCCCCCCCCn1cc(COC(=O)c2ccccc2O)[n+](C)n1.[I-] [Compound 8, 1‐Decyl‐4‐(((2‐Hydroxybenzoyl)oxy)methyl)‐3‐Methyl‐1H‐1,2,3‐Triazol‐3‐Ium Iodide]	2.49 ± 0.5	0.31 ± 0.22	1080 ± 180	0.12	–
CCCCCCCCCCCCCCCCOP(=O)([O-])OCC[N+](C)(C)C [Miltefosine, reference compound]	11.5 ± 1.79	151.81 ± 0.03	15000 ± 2080	–	hemolysis at 24 h, 200 µM [3]: 95.9%
CCCCCCCCCCCCn1cc(COC(=O)c2ccccc2O)[n+](C)n1 [Compound 9, 1‐Dodedecyl‐4‐(((2‐Hydroxybenzoyl)oxy)methyl)‐3‐Methyl‐1H‐1,2,3‐Triazol‐3‐Ium Iodide]	6.31 ± 1.86	1.34 ± 0.32	1580 ± 120	0.21	–
CCCCCCCCCCCCCCn1cc(COC(=O)c2ccccc2O)[n+](C)n1.[I-] [Compound 10, 1‐Tetradecyl‐4‐(((2‐Hydroxybenzoyl)oxy)methyl)‐3‐Methyl‐1H‐1,2,3‐Triazol‐3‐Ium Iodide]	5.92 ± 2.24	2.37 ± 0.82	1550 ± 340	0.40	–
CCCCCCCCn1cc(COC(=O)c2ccccc2O)[n+](C)n1.[I-] [Compound 7, 1‐Octyl‐4‐(((2‐Hydroxybenzoyl)oxy)methyl)‐3‐Methyl‐1H‐1,2,3‐Triazol‐3‐Ium Iodide]	6.23 ± 0.35	111 ± 34.5	1260 ± 270	17.81	increase in total ROS ([6]; 6 h, 2× IC50 value (2.50 μM)): 56.54%; increase in total ROS ([6]; 6 h, IC50 value (1.25 μM)): 62.81%; increase in total ROS ([6]; 24 h, 2× IC50 value (2.50 μM)): 77.03%; increase in total ROS ([6]; 24 h, IC50 value (1.25 μM)): 79.87%; increase in mitochondrial superoxide ([7]; 2× IC50 value (2.50 μM)): 62.54%; increase in mitochondrial superoxide ([7]; IC50 value (1.25 μM)): 57.68%; mitochondrial superoxide levels (in words) ([7]; 24 h, 1.25 and 2.50 μM): no alteration; membrane integrity, PI staining (in words) [8]: unaffected; also recorded: no significant alterations; mitochondrial membrane potential (in words) ([9]; 6 h, 1.25 and 2.50 μM): no change; also recorded: without alterations; mitochondrial membrane hyperpolarization ([9]; 2× IC50 value (2.50 μM)): 29.66%; mitochondrial membrane hyperpolarization ([9]; IC50 value (1.25 μM)): 22.00%; fold lower cytotoxicity compared to the 4-hydroxy-substituted precursor previously described [10]: 3.8 fold; hemolytic effect (in words) (human erythrocytes): no hemolytic effect; hemolysis at 24 h, 200 µM [3]: 3.82%

— article PMC12723204, “Mitochondrial Dysfunction Induced by a Novel Salicylate‐Based 1,2,3‐Triazole Salt With Potent Antileishmanial Activity” (Chemical Biology & Drug Design, 2025)
